According to PMC6327999, “Hydroxyl-substituted double Schiff-base condensed 4-piperidone/cyclohexanones as potential anticancer agents with biological evaluation” (Journal of Enzyme Inhibition and Medicinal Chemistry, 2019):
Read-outs that look alike come from different tables or passages of the source.

Experiments:
[1] = tested on: human chronic myelogenous leukemia cell line (K562); assay: Cytotoxicity, MTT assay, K562; type: cell-based; conditions: for IC50: Homo sapiens, K562, MTT, 24 hours; for K562 SI: quotient of the IC50 values towards nonmalignant LO2 cells
Excerpt: (§1) Compounds 2a–d, 3a–e, 4a–e, 5a–d, and 6a–c were screened against human neoplastic cell lines such as human lung carcinoma cells (A549), human gastric adenocarcinoma cells (SGC7901), human cervical carcinoma cells (HeLa), human liver hepatocellular carcinoma cell line (Hepg2), human chronic myelogenous leukemia cell line (K562), human acute mononuclear granulocyte leukemia (THP-1), human normal heptical cell line (LO2) (Table 1) using modified MTT assay (3-(4,5-dimethyl-2-thiazolyl)-2,5-diphenyl-2-H-tetrazolium bromide, MTT, Dojindo Laboratories, Tokyo, Japan). All cell lines were maintained at 37 °C in a humidified 5% CO2 and 95% air atmosphere. The HePG2 cell lines were cultured in DMEM containing 10% fetal bovine serum. Other cell lines were grown in medium 1640 and supplemented with 10% fetal bovine serum. […] Controls were prepared with 0.1% DMSO (v/v) only. The cells were seeded in a 96-well plate in 200 µL medium per well at a density of 1 × 10^4 cells/well for 24 hours. The cells were treated with serial concentrations of compound and incubated for 24 hours. Cells with only culture media were used as control. After the media was removed, 20 µL of MTT (5 mg/mL) was added then the plates were incubated for 4 hours at 37 °C in cell culture incubator. The MTT containing media were removed and then 150 µL of DMSO was added to dissolve the dark-blue formazan crystals. The optical density (OD) was measured by a multi-well plate reader (TECAN, Männedorf, Switzerland) at 570 nm. The results are expressed as a decrease in the cell viability (%) in comparison to untreated controls. The concentration of each compound was examined in triplicate, and the IC50 values are expressed in Table 1. The concentrations of the compounds were 50, 20, 10, 5, 2.5, 1, 0.5, 0.1, 0.05 and 0.01 µg/mL. Doxorubicin (DOX) and Curcumin were used as positive controls. […] The concentrations of curcumin used were 100, 50, 25, 12.5, 6.25, 3.125, 1, 0.5 and 0.1 µg/mL.

[2] = tested on: human cervical carcinoma cells (HeLa); assay: Cytotoxicity, MTT assay, HeLa; type: cell-based; conditions: for IC50: Homo sapiens, HeLa, MTT, 24 hours; for HeLa SI: quotient of the IC50 values towards nonmalignant LO2 cells
Excerpt: as §1

[3] = tested on: human gastric adenocarcinoma cells (SGC7901); assay: Cytotoxicity, MTT assay, SGC7901; type: cell-based; conditions: for IC50: Homo sapiens, SGC-7901, MTT, 24 hours; for SGC7901 SI: quotient of the IC50 values towards nonmalignant LO2 cells
Excerpt: as §1

[4] = tested on: human liver hepatocellular carcinoma cell line (Hepg2); assay: Cytotoxicity, MTT assay, HePG2; type: cell-based; conditions: for IC50: Homo sapiens, HepG2, MTT, 24 hours; for HePG2 SI: quotient of the IC50 values towards nonmalignant LO2 cells
Excerpt: as §1, with “µg/mL.” for “µg/mL. Doxorubicin (DOX) and Curcumin were used as positive controls.”

[5] = tested on: human normal heptical cell line (LO2); assay: Cytotoxicity, MTT assay, non-malignant LO2; type: cell-based; conditions: 24 hours, non-malignant cells
Excerpt: as §1

[6] = tested on: human carcinoma cell lines A549, SGC7901, HePG2, HeLa, K562, THP-1; assay: Cytotoxicity, MTT assay, panel of human carcinoma cell lines (average / overall); type: cell-based; conditions: for IC50: Homo sapiens
Excerpt: as §1
The cytotoxicity activities against human carcinoma cell lines A549, SGC7901, HePG2, HeLa, K562, THP-1 and cytotoxicity toward LO2 cell lines were evaluated by MTT method. DOX and curcumin were used as positive control. The selectivity index (SI) is the quotient of the IC50 values towards nonmalignant LO2 cells. […] Especially for 4a–e, 5a–d, and 6a–c, this ratio can reach about 92%.

[7] = tested on: human lung carcinoma cells (A549); assay: Cytotoxicity, MTT assay, A549; type: cell-based; conditions: for IC50: Homo sapiens, A549, MTT, 24 hours; for A549 SI: quotient of the IC50 values towards nonmalignant LO2 cells
Excerpt: as §1

[8] = tested on: human acute mononuclear granulocyte leukemia (THP-1); assay: Cytotoxicity, MTT assay, THP-1; type: cell-based; conditions: for IC50: Homo sapiens, THP-1, MTT, 24 hours; for THP-1 SI: quotient of the IC50 values towards nonmalignant LO2 cells
Excerpt: as §1

HepG2 xenografts = assay: In vivo antitumor efficacy, HepG2-bearing nude mice; parameters: species or system Balb/c nude mice; conditions: DOX 1.0 mg/kg every two days for 20 days
Procedure: The antitumor effect was investigated on the seven-week-old female Balb/c nude mice (n = 30) weighing 19–21 grams (Shanghai Laboratory Animal Center). Briefly, 0.2 mL HepG2 cells (1 × 10^7/mL) were inoculated subcutaneously into the alar left of each mouse. On the third day after the inoculation, the HepG2-bearing mice were randomly divided into five groups (n = 6/group) and administrated the according drug or solvent. […] The control group was administrated of saline as negative control. The body weight and tumor volumes calculation were recorded from the day of treatment, and the tumor volumes were calculated using the following equation: tumor volume = length × (width)^2 × π/6. Animal experiments were reviewed and approved by the Binzhou Medical University Experimental Animal Committee.

[9] = average over the six carcinoma cell lines, read-out: Ave IC50
[10] = average over the six carcinoma cell lines

| SMILES | IC50 [1] | K562 SI [1] | IC50 [2] | HeLa SI [2] | IC50 [3] | SGC7901 SI [3] | IC50 [4] | HePG2 SI [4] | IC50 [5] | IC50 [6, 9] | Ave SI [6, 10] | IC50 [7] | A549 SI [7] | IC50 [8] | THP-1 SI [8] | IC50 ([6]; statement for all experimental carcinoma cell lines, read-out: IC50 values against human carcinoma cell lines) | tumor growth inhibition (HepG2 xenografts) |
| --- | --- | --- | --- | --- | --- | --- | --- | --- | --- | --- | --- | --- | --- | --- | --- | --- | --- |
| CN1C/C(=C\c2cccc(/N=C/c3cc(Br)ccc3O)c2)C(=O)/C(=C/c2cccc(/N=C/c3cc(Br)ccc3O)c2)C1 [4c] | 6.2 ± 0.7 µM | 2.1 | 4.7 ± 0.1 µM | 2.8 | 3 ± 0.3 µM | 4.3 | 3.54 ± 0.1 µM | 3.6 | 12.8 ± 0.2 µM | 4.8 µM | 3.2 | 9 ± 0.8 µM | 1.4 | 2.5 ± 0.2 µM | 5.1 |  |  |
| Nc1cccc(/C=C2\CCC/C(=C\c3cccc(N)c3)C2=O)c1 [2a, (2E,6E)-2,6-bis(3-aminobenzylidene)cyclohexanone] | 22.2 ± 1.9 µM | 1.3 | 25.9 ± 3.7 µM | 1.1 | 9.4 ± 0.2 µM |  | 10.7 ± 0.5 µM | 2.6 | 28.2 ± 3.9 µM | 13.7 µM | 2.7 | 7.9 ± 0.1 µM | 3.6 | 6.2 ± 1.1 µM | 4.5 | > 5 µM |  |
| CN1C/C(=C\c2cc(/N=C/c3ccc(O)c(O)c3O)ccc2F)C(=O)/C(=C/c2cc(/N=C/c3ccc(O)c(O)c3O)ccc2F)C1 [6c] | 1.9 ± 0.2 µM | 9.5 | 2.5 ± 0.1 µM | 7.5 | 2 ± 0.2 µM | 9.3 | 2.6 ± 0.2 µM | 7.1 | 18.4 ± 1 µM | 2 µM | 9.5 | 1.5 ± 0.2 µM | 12.5 | 1.6 ± 0.1 µM | 11.4 |  |  |
| COc1cccc2c1C(=O)c1c(O)c3c(c(O)c1C2=O)C[C@@](O)(C(=O)CO)C[C@@H]3O[C@H]1C[C@H](N)[C@H](O)[C@H](C)O1 [DOX, Doxorubicin, reference compound] | 1.6 ± 0.2 µM |  | 2.1 ± 0.3 µM |  | 7 ± 0.4 µM |  | 0.6 ± 0.1 µM |  | 6.1 ± 0.5 µM | 2.6 µM |  | 3.8 ± 0.1 µM |  | 0.5 ± 0.2 µM |  |  | suppressed significantly |
| CN1C/C(=C\c2cc(/N=C/c3cccc(O)c3O)ccc2F)C(=O)/C(=C/c2cc(/N=C/c3cccc(O)c3O)ccc2F)C1 [6a] | 2.8 ± 0.2 µM | 7.7 | 2.2 ± 0.2 µM | 9.9 | 2.4 ± 0.1 µM | 9.2 | 2.6 ± 0.1 µM | 8.4 | 21.7 ± 2 µM | 2.2 µM | 10.2 | 1.9 ± 0.1 µM | 11.6 | 1.5 ± 0.2 µM | 14.2 |  |  |
| O=C1/C(=C/c2cc(/N=C/c3cccc(O)c3O)ccc2F)CNC/C1=C\c1cc(/N=C/c2cccc(O)c2O)ccc1F [5a] | 1.5 ± 0.1 µM | 11.7 | 1.1 ± 0.4 µM | 15.0 | 1.6 ± 0.1 µM | 11.2 | 1.8 ± 0.05 µM | 9.7 | 17.6 ± 1 µM | 1.6 µM | 12.1 | 2.8 ± 0.2 µM | 6.4 | 1 ± 0.3 µM | 18.5 |  |  |
| COc1cc(Br)cc(/C=N/c2cccc(/C=C3\CN(C)C/C(=C\c4cccc(/N=C/c5cc(Br)cc(OC)c5O)c4)C3=O)c2)c1O [4e] | 1.8 ± 0.01 µM | 5.9 | 2.6 ± 0.1 µM | 4.2 | 2 ± 0.3 µM | 5.4 | 1.27 ± 0.02 µM | 8.6 | 10.9 ± 0.2 µM | 1.7 µM | 7.2 | 1.5 ± 0.3 µM | 7.2 | 0.9 ± 0.1 µM | 11.8 |  |  |
| CN1C/C(=C\c2cc(/N=C/c3cc(O)ccc3O)ccc2F)C(=O)/C(=C/c2cc(/N=C/c3cc(O)ccc3O)ccc2F)C1 [6b] | 5.1 ± 0.3 µM | 4.2 | 3.4 ± 0.4 µM | 6.2 | 2.6 ± 0.1 µM | 8.3 | 2.7 ± 0.2 µM | 7.8 | 21.3 ± 2 µM | 3 µM | 7.9 | 2.3 ± 0.1 µM | 9.1 | 1.8 ± 0.1 µM | 12.0 |  |  |
| O=C1/C(=C/c2cccc(/N=C/c3cc(Br)ccc3O)c2)CCC/C1=C\c1cccc(/N=C/c2cc(Br)ccc2O)c1 [3c] | 14 ± 0.1 µM | 0.9 | 11.4 ± 0.9 µM | 1.0 | 5.2 ± 0.8 µM | 2.3 | 13.7 ± 1.1 µM | 0.9 | 12 ± 0.1 µM | 10 µM | 1.4 | 10.6 ± 1.1 µM | 1.1 | 5.3 ± 0.01 µM | 2.3 |  |  |
| COc1ccc(/C=N/c2cccc(/C=C3\CCC/C(=C\c4cccc(/N=C/c5ccc(OC)cc5O)c4)C3=O)c2)c(O)c1 [3d] | 3.2 ± 0.02 µM | 3.6 | 13.1 ± 1 µM | 0.9 | 7.1 ± 1 µM | 1.6 | 4 ± 0.1 µM | 2.9 | 11.3 ± 0.1 µM | 5.8 µM | 2.5 | 4.1 ± 0.6 µM | 2.8 | 3.2 ± 0.03 µM | 3.6 |  |  |
